Data on six compounds can be found in US9044474B2, “Compositions and methods for increasing drug efficacy in cancer” (The Ohio State University, priority 2010, dated 2015).

Series [1] deals with CLL cells. In words: LC3 confocal immunofluorescence (autophagosome formation) in CLL cells in vitro. The class given is cell-based, human. The note with it: CLL patient cells, 4 hours; rapamycin 5 μM, thapsigargin 1 μM, F-ara-A 5 μM, chlorambucil 20 μM, CAL-101 1 μM, rituximab 10 μg/ml, flavopiridol 2 μM, CQ 0.5 μM. As for the experimental part: (§1) After 4 hours exposure to agents, cells were washed in phosphate-buffered saline (PBS) and made adherent on a microscope slide by centrifugation in a Cytospin3 (Shandon) centrifuge. Immediately after cytospin, cells were fixed in cold acetone. […] Nuclei were stained blue with DAPI (Vector Laboratories, Burlingame, Calif.). Images were taken using a 60× objective and 4× digital zoom with Olympus Fluoview 1000 Laser Scanning Confocal microscope at the Ohio State University Campus Microscopy and Imaging Facility. ATF6 antibody was purchased from LifeSpan Biosciences (Seattle, Wash.) and Nrf2 was from Santa Cruz Biotechnology (Santa Cruz, Calif.). Nuclei were evaluated for ATF6 and Nrf2 using confocal microscopy to collect Z stacks, approximately 45 slices per cell, 0.2 μm each.
LC3 intensity and number of dots per cell were both assessed in the fluorescence images. Integrated intensity was measured using Metamorph v.7.0. To calculate the number of “dots” (local extreme point in pixel-intensity profile at which a number of high-intensity pixels form a cluster), a Gaussian filter was first applied to reduce noise. Cells were enumerated electronically by an improved watershed-based algorithm. To quantify co-localization, two binary nuclei images—red (R) and green (G)—are obtained. The correlation value is calculated as the number of white pixels of (R&G) divided by the number of pixels of (RIG), where (R&G) is the intersection of R and G, and (RIG) is the union of R and G. The program used for cell counts and measurement of correlation index is based on MatLab software (Natick, Mass.) and it was developed by members of Department of Biomedical Informatics, The Ohio State University.

Series [2] deals with CLL cells. In words: LC3-Lamp2 co-localization (autophagosome-lysosome fusion) by confocal microscopy in CLL cells. Format: cell-based, human. The note with it: CLL cells incubated with 5 μM rapamycin (FIG. 9). As for the experimental part: as §1
LC3 intensity and number of dots per cell were both assessed in the fluorescence images. Integrated intensity was measured using Metamorph v.7.0. To calculate the number of “dots” (local extreme point in pixel-intensity profile at which a number of high-intensity pixels form a cluster), a Gaussian filter was first applied to reduce noise. Cells were enumerated electronically by an improved watershed-based algorithm. To quantify co-localization, two binary nuclei images—red (R) and green (G)—are obtained. […]

The test system of series [3] is CLL cells. In words: Cell viability by annexin V/PI flow cytometry in CLL cells. The method, then:
Percent of live cells was determined by staining with annexin V-fluorescein isothiocyanate and propidium iodide (PI). After exposure to agents, cells were washed with PBS and stained in 1× binding buffer (BD Biosciences, Franklin Lakes, N.J.). Cell viability was assessed by flow cytometry using a Beckman-Coulter Cytomics FC500 cytometer. Data were analyzed with the CXP Cytometer software package (Beckman-Coulter). A total of 10,000 cells were counted for each sample. The cells treated with flavopiridol were washed after 4 hours with PBS and re-suspended in regular growth medium (RPMI 1640) supplemented with 10% human serum and antibiotics for the remainder of the incubation time. […] For all the other conditions, cells were incubated with the respective drugs for 24 hours continuously.
CLL cells were suspended in buffer V (Amaxa kit, Lonza, Allendale, N.J.) and nucleofection was performed using program U016 (5 μg siRNA and 1×10^7 cells per cuvette). Scrambled siRNA and siRNAs to ATG5, ATG7 and ASK1 were purchased from Sigma-Aldrich. Cells were immediately suspended in warm, complete media supplemented with 10% human serum, and RNA was extracted after 36 hours. For CDK1 and CDK5, siRNAs were purchased from Applied Biosystems (Carlsbad, Calif.). Transfections were done using 5 nM siRNA per cuvette, and RNA was harvested at 48 hours.

In series [4] the test system is XBP1, IRE1, GRP78. In words: Real-time RT-PCR of ER stress genes in CLL cells in vitro. The class given is cell-based, human. The note with it: CLL cells n=5; flavopiridol 2 μM, thapsigargin 1 μM, tunicamycin 3 μg/ml; CD52 control gene. As for the experimental part:
(§2) RNA was extracted using TRIzol reagent (Invitrogen, Carlsbad, Calif.) and purified using QIAGEN RNeasy columns (Qiagen, Valencia, Calif.). cDNA was prepared with SuperScript First-Strand Synthesis System (Invitrogen). Real-time PCR was performed using primers purchased from Applied Biosystems. Detection was performed using an ABI Prism 7700 sequence detection system (Applied Biosystems). Average relative expression (treatment compared with vehicle) was normalized to the internal control gene CD52. Primers to detect spliced XBP1 were designed using Primer 3 software and purchased from IDT. Samples were analyzed on 10% acrylamide gels.
A general note: Real-time PCR tracks product formation cycle by cycle.

Series [5] deals with PERK. In words: PERK activity by eIF2α phosphorylation immunoblot in CLL cells. The class given is cell-based, human. The method, then: (§3) Proteins extracted from whole cell lysates (50 μg/lane) were separated on polyacrylamide gels and transferred on nitrocellulose membrane. Antibodies used for immunoblots included LC3, IRE1α, TRAF2, PI3K III, ATG4C, ATG5-12, UVRAG, Beclin-1 (Cell Signaling, Boston, Mass.), GAPDH, Nrf2, ASK1, ULK1 (Santa Cruz Biotechnology), and Bif-1, ATG14-Barkor (Sigma-Aldrich, St Louis, Mo.). Species-appropriate secondary antibodies were obtained from BioRad Laboratories (Hercules, Calif.). Following antibody incubations, proteins were detected using a chemiluminescent substrate (BioRad Laboratories). For co-immunoprecipitations, TrueBlot beads (eBiosciences, San Diego, Calif.) and One-hour IP Western kit (GenScript, Piscataway, N.J.) were used according to manufacturer protocols. Quantification was done using FluorChem Q (Alpha Innotech, San Leandro Calif.).

Series [6] deals with Jurkat cell line. In words: eIF2α phosphorylation immunoblot in cell lines (control). The class given is cell-based. As for the experimental part: as §3
In series [7] the test system is IRE1. In words: XBP1 splicing (IRE1 activity) PCR in CLL cells. Format: cell-based, human. The note with it: for induction of XBP1 splicing: CLL samples. The method, then: as §2
Series [8] deals with cell lines 293T, RAW and 697, normal B cells. In words: XBP1 splicing PCR in normal B cells and cell lines. The class given is cell-based. As for the experimental part: as §2
In series [9] the test system is ATF6. In words: ATF6 nuclear translocation by confocal fluorescence microscopy in CLL cells. Format: cell-based, human. The note with it: CLL patient cells, flavopiridol 2 μM or thapsigargin 1 μM, 4 hours. The method, then: After 4 hours exposure to agents, cells were washed in phosphate-buffered saline (PBS) and made adherent on a microscope slide by centrifugation in a Cytospin3 (Shandon) centrifuge. Immediately after cytospin, cells were fixed in cold acetone. Next, the cells were incubated in blocking solution (2% bovine serum albumin in PBS) and stained for LC3 (Cell Signaling, Boston, Mass.)) and Lamp2 (Santa Cruz Biotechnology, Santa Cruz, Calif.) by incubating separately with the respective primary antibodies over night, in 4° C., followed by incubation with fluorescent secondary antibodies (Invitrogen, Carlsbad, Calif.): Alexa fluor 594 (red) anti-rabbit for LC3 and Alexa fluor 488 (green) anti-mouse for Lamp2. Nuclei were stained blue with DAPI (Vector Laboratories, Burlingame, Calif.). Images were taken using a 60× objective and 4× digital zoom with Olympus Fluoview 1000 Laser Scanning Confocal microscope at the Ohio State University Campus Microscopy and Imaging Facility. ATF6 antibody was purchased from LifeSpan Biosciences (Seattle, Wash.) and Nrf2 was from Santa Cruz Biotechnology (Santa Cruz, Calif.). Nuclei were evaluated for ATF6 and Nrf2 using confocal microscopy to collect Z stacks, approximately 45 slices per cell, 0.2 μm each.

Series [10] concerns 697 cells. In words: ChIP assay of ATF6 at GRP78 promoter in 697 cells. The class given is cell-based. The note with it: relative to IgG control. The method, then:
In brief, cells were treated with 37% formaldehyde to ensure crosslinking of proteins to DNA. Cells were lysed and sonicated to shear the chromatin to fragments of approximately 500 bp. Sheared chromatin was incubated with ATF6 antibody (LifeSpan Biosciences, Seattle, Wash.), followed by precipitation, washing and reversing of the crosslinks Purified DNA was then analyzed by real-time quantitative PCR using primers to the GRP78 promoter region. Primers were designed using Primer 3 software and purchased from IDT (Coralville, Iowa).

Series [11] relates to JNK1 and p38MAPK. In words: Immunoblot of phosphorylated JNK1 and p38MAPK in CLL cells in vitro. The class given is cell-based, human. The note with it: flavopiridol 2 μM, thapsigargin 1 μM, F-ara-A 5 μM. As for the experimental part:
as §3
On the technique in general: A western blot detects proteins with antibodies after separation by electrophoresis.

Series [12] concerns caspase 4. In words: Caspase 4 activity (AFC assay) in CLL cells treated in vitro. The class given is cell-based, human. The note with it: Z-YVAD-FMK 20 μM in combination with flavopiridol, thapsigargin or tunicamycin. As for the experimental part:
(§4) The presence of active caspase enzymes was determined by the AFC assay. Briefly, lysates containing approximately 3×10^6 cells were incubated with 50 μM LEVD-AFC (caspase 4 substrate) or LETD-AFC (caspase 8 substrate) from MP Biomedicals (Solon, Ohio) in 2× cytobuffer from BioVision (Exton, Pa.) containing 10 mM dithiothretiol (DTT). Caspase 4 activity was measured one hour after addition of substrate and caspase 8 activity was measured 30 minutes after addition of substrate. Release of free AFC was measured with a Beckman-Coulter DTX 880 multimode detector (Filters: excitation, 405/10 nm; emission, 535/25 nm). Caspase 4 inhibitor Z-YVAD-FMK was purchased from R&D Systems.

Series [13] deals with caspase 8. In words: Caspase 8 activity (AFC assay) in CLL cells treated in vitro. The note with it: Z-YVAD-FMK 20 μM in combination with flavopiridol, thapsigargin or tunicamycin. The class given is cell-based, human. The method, then:
as §4

Consider `O=C(O)CCCc1ccc(N(CCCl)CCCl)cc1` [chlorambucil], for which, in series [1], the “LC3 aggregation / LC3 fluorescence (autophagosome formation) versus vehicle” value was “neither chlorambucil nor rituximab produced this effect”.
For the compound `CCN(CC)CCCC(C)Nc1ccnc2cc(Cl)ccc12` (centres unmarked) [chloroquine], in series [2], the “chloroquine concentrations that inhibit autophagosome-lysosome fusion” value was 0.1 to 0.5 µM.
`C/C=C(/C)C(=O)O[C@H]1C(C)=C2[C@H]([C@@H]1OC(=O)CCCCCCC)[C@@](C)(OC(C)=O)C[C@H](OC(=O)CCC)[C@@]1(O)[C@H]2OC(=O)[C@@]1(C)O` [thapsigargin]: in series [1], the “LC3 aggregation / LC3 fluorescence (autophagosome formation) versus vehicle” value is on record as “increase in LC3 aggregation”. In addition, in series [3] (CLL cells, annexin/PI negative, CQ 0.5 μM, flavopiridol 4 hours then washed, CQ continuous 24 hours), the “effect of chloroquine addition on cell death caused by the agent” value is “significantly enhanced”. Besides, the “effect of ATG5/ATG7 siRNA vs scrambled siRNA on cytotoxicity of the agent” value in [3] (human, 24 h, 1 μM) is “significantly (P=0.0047) enhanced”. Besides, the “expression of ER stress genes XBP1, IRE1 and GRP78” value in series [4] is “significant, time-dependent increase in expression of ER stress genes XBP1, IRE1 and GRP78”. For the same compound, the “PERK activity (phosphorylation of eIF2α)” value in [5] is on record as “minimally active”. For the same compound, the eIF2α phosphorylation entry in series [6] is “dramatic EIF2α phosphorylation”. Moreover, the “IRE1 activity (splicing of IRE1 substrate XBP1)” value in series [7] (CLL cells) is “no evidence of IRE1 activity”. Further, the “induction of XBP1 splicing” value in series [7] is “neither thapsigargin nor tunicamycin induced XBP1 splicing in any of the samples analyzed”. Moreover, in series [8], the XBP1 splicing entry is recorded as “XBP1 splicing is detected”. The ATF6 nuclear translocation entry in series [9] is on record as “increased nuclear translocation”. Also, in series [10], the “binding of GRP78 promoter region by ATF6” value was “enhanced binding of the GRP78 promoter region by ATF6”. Further, the “phosphorylation of JNK1 and p38MAPK” value in series [11] is “induced the phosphorylation of both JNK1 and p38MAPK”.
In the case of Z-YVAD-FMK, the “effect on flavopiridol-mediated cell death” value in [3] (CLL cells n=5, Z-YVAD-FMK 20 μM, flavopiridol 2 μM, 24 hours) was “significantly (P=0.012) reduced”. Also, the “inhibition of agent-induced caspase 4 activity” value in series [12] is on record as “successfully inhibited”. Further, the “inhibition of agent-induced caspase 8 activity” value in [13] is “successfully inhibited”.
For “rituximab: agent used in CLL, from Genentech”, the “LC3 aggregation / LC3 fluorescence (autophagosome formation) versus vehicle” value in series [1] is “neither chlorambucil nor rituximab produced this effect”.
Turning to tunicamycin, the “expression of ER stress genes XBP1, IRE1 and GRP78” value in series [4] was “significant, time-dependent increase in expression of ER stress genes XBP1, IRE1 and GRP78”. For the same compound, the “induction of XBP1 splicing” value in [7] was “neither thapsigargin nor tunicamycin induced XBP1 splicing in any of the samples analyzed”.
